# Data taken from publication PMC9320654 (Toxins, 2022).
# Structures can show the parent of a compound that is named as a salt.
# Assays:
# [1] = Metabolic stability in cryopreserved hepatocytes, monkey; format: in vitro ADME, cynomolgus monkey
# Procedure: (§1) Hepatocyte metabolic stability was evaluated in cryopreserved hepatocytes from CD-1 mice (Lot#: EXR), Sprague Dawley rats (Lot#: OSQ), beagle dogs (Lot#: ZMB), cynomolgus monkeys (Lot#: KMS), and human donors (Lot#: AEL) obtained from Bioreclamation IVT, LLC (Shanghai, China). […] Samples were withdrawn from the reaction mixture at 0, 15, 30, 60, and 90 min and were quenched with stop solution (acetonitrile containing 200 ng/mL tolbutamide and 200 ng/mL labetalol as internal standards). A cocktail of 7-ethoxycoumarin (Lot#: I1825085) was used as the positive control for the assay. The analytical plates were sealed and stored at 4 °C until LC-MS/MS analysis.
# (§2) The remaining percentages of test articles after incubation were calculated by the following equations:(7) %Remainingat Appointed Time=Peak Area Ratios of Test Article versus Internal Standard at Appointed Time/Peak Area Ratios of Test Article versus Internal Standard 0 min
# (§3) We used the equation of first order kinetics to calculate T1/2 and CLint:
# (§4) Equation of first-order kinetics:(8) Ct=C0·e^−k·t when Ct=1/2C0,T1/2=ln2/k=0.693/k (9) CLint hep=k/million cells per mL (10) CLint liver=CLint hep×Liver weight g/kg body weight×hepatocellularity
# [2] = Metabolic stability in cryopreserved hepatocytes, mouse; format: in vitro ADME, CD-1 mouse
# Procedure: as §1, §2, §3, §4
# [3] = Metabolic stability in cryopreserved hepatocytes, rat; format: in vitro ADME, Sprague Dawley rat
# Procedure: as §1, §2, §3, §4
# [4] = Metabolic stability in cryopreserved hepatocytes, dog; format: in vitro ADME, beagle dog
# Procedure: as §1, §2, §3, §4
# [5] = Metabolic stability in cryopreserved hepatocytes, human; format: in vitro ADME
# Procedure: as §1, §2, §3, §4
# [6] = Plasma stability, dog plasma; format: in vitro ADME; details: beagle
# Procedure: (§5) The pooled frozen plasma was thawed in a water bath at 37 °C prior to the experiment. Plasma was centrifuged at 4000 rpm for 5 min, and the clots, if any, were removed. Using an Apricot automation workstation, blank plasma (98 μL/well) was added to six 96-well reaction plates (Blank, T0, T10, T30, T60, and T120). An Apricot automation workstation was used to add working solution (2 μL/well, 100 μM) to all reaction plates except the Blank plate (T0, T10, T30, T60, and T120). All reaction plates containing mixtures of compound and plasma were incubated at 37 °C in a water bath. At the end of the incubation, 400 μL of stop solution (200 ng/mL tolbutamide and 200 ng/mL labetalol in acetonitrile) was added to precipitate the protein, and the mixture was mixed thoroughly. Samples were then vortexed and centrifuged (20 min, 4000 rpm, 4 °C). After centrifugation, an Apricot automation workstation was used to transfer 50 μL of supernatant into 100 μL of HPLC water. […] Each bioanalysis plate was sealed and shaken for 10 min prior to LC-MS/MS analysis. The % remaining test compound after incubation in plasma was calculated using the following equation:(11) % Remaining= PAR at appointed incubation time/PAR at T0 time×100 where PAR is the peak area ratio of analyte versus internal standard (IS).
# (§6) The appointed incubation time points are T0 (0 min), Tn (n = 0, 10, 30, 60, 120 min).
# [7] = Plasma stability, rat plasma; format: in vitro ADME
# Procedure: as §5, §6
# [8] = Metabolite identification by LC-UV-MS^n in rat liver microsomes; format: in vitro ADME; parameters: key: +: metabolite was detected in liver microsomes; -: metabolite was detected in liver microsomes; details: BEA 10 µM, 37 °C, 60 min
# Procedure: (§7) The positive control, 7-ethoxycoumarin (7-EC) at 10 µM, was run concurrently to assess Phase I metabolic activities in liver microsomes. […] After incubation, the samples were analyzed by LC-UV-MS (Table S7). The structures of the metabolites were proposed based on the interpretation of their MS and MS2 data. The results are presented in Table 6 and Figure 6. %Total=Peak Area of a Releted Component/Peak Area of Total Releted Component×100%
# [9] = Metabolite identification by LC-UV-MS^n in human liver microsomes; format: in vitro ADME; parameters: key: +: metabolite was detected in liver microsomes; -: metabolite was not detected in liver microsomes; details: BEA 10 µM, 37 °C, 60 min
# Procedure: as §7
# [10] = Metabolite identification by LC-UV-MS^n in mouse liver microsomes; format: in vitro ADME; parameters: key: +: metabolite was detected in liver microsomes; -: metabolite was detected in liver microsomes; details: BEA 10 µM, 37 °C, 60 min
# Procedure: as §7
# [11] = Metabolite identification by LC-UV-MS^n in dog liver microsomes; format: in vitro ADME; parameters: key: +: metabolite was detected in liver microsomes; -: metabolite was detected in liver microsomes; details: BEA 10 µM, 37 °C, 60 min
# Procedure: as §7
# [12] = Metabolite identification by LC-UV-MS^n in monkey liver microsomes; format: in vitro ADME; parameters: key: +: metabolite was detected in liver microsomes; -: metabolite was not detected in liver microsomes; details: BEA 10 µM, 37 °C, 60 min
# Procedure: as §7
# [13] = Plasma stability, monkey plasma; format: in vitro ADME; details: cynomolgus
# Procedure: as §5, §6
# [14] = Plasma stability, mouse plasma; format: in vitro ADME
# Procedure: as §5, §6
# [15] = Plasma stability, human plasma; format: in vitro ADME
# Procedure: as §5, §6
# CYP2C9 = target: T1, CYP2C9 (Homo sapiens, UniProt P11712); format: in vitro ADME; details: CYP2C9 in HLM; positive control, final conc. 3 μM in Table S1
# T1 construct: tissue Corning or Xenotech; host or cells: human liver microsomes (mixed gender)
# Procedure: A mixture of microsomes and substrates for each CYP isozyme were prepared individually in 100 mM potassium phosphate buffer at pH 7.4. […] The reaction mixture was incubated for 10 min, followed by the addition of 20 μL of 10 mM NADPH solution. […] At the appropriate time point, we terminated the reaction by adding 400 µL of cold stop solution (200 ng/mL tolbutamide and labetalol in acetonitrile). The samples were centrifuged at 4000 rpm for 20 min to precipitate the protein, and then detected by LC/MS/MS. XL fit was used to plot the percent of vehicle control versus the test compound concentrations and for nonlinear regression analysis of the data. The IC50 values were determined using 3- or 4-parameter logistic equations.
# [16] = Metabolic stability in liver microsomes, MLM; format: in vitro ADME, CD-1 mouse
# Procedure: (§8) All incubations were performed at 37 °C in 100 mM potassium phosphate buffer in an orbital incubator. Various nicotinamide adenine dinucleotide phosphate (NADPH) concentrations were tried to optimize the method. […] Samples were withdrawn from the reaction mixture at different times (5, 15, 30, 45, and 60 min), and the reaction was terminated using acetonitrile. […] Each bioanalysis plate was sealed and shaken for 10 min prior to LC-MS/MS analysis (Table S6).
# [17] = Metabolic stability in liver microsomes, CLM; format: in vitro ADME, cynomolgus monkey
# Procedure: as §8
# [18] = Metabolic stability in liver microsomes, DLM; format: in vitro ADME, beagle dog
# Procedure: (§9) All incubations were performed at 37 °C in 100 mM potassium phosphate buffer in an orbital incubator. Various nicotinamide adenine dinucleotide phosphate (NADPH) concentrations were tried to optimize the method. […]. The positive control compound testosterone was incubated in parallel with the BEA samples. Each bioanalysis plate was sealed and shaken for 10 min prior to LC-MS/MS analysis (Table S6). […]
# [19] = Metabolic stability in liver microsomes, RLM; format: in vitro ADME, Sprague Dawley rat
# Procedure: as §9
# [20] = Plasma protein binding (HTdialysis equilibrium dialysis), mouse plasma; format: in vitro ADME, CD-1 mouse; details: CD-1, pH 7.4, read-out: Fu (%), unbound fraction
# [21] = Plasma protein binding (HTdialysis equilibrium dialysis), monkey plasma; format: in vitro ADME, cynomolgus monkey; details: pH 7.4, read-out: Fu (%), unbound fraction
# [22] = Plasma protein binding (HTdialysis equilibrium dialysis), dog plasma; format: in vitro ADME; details: beagle, pH 7.4, read-out: Fu (%), unbound fraction
# [23] = Plasma protein binding (HTdialysis equilibrium dialysis), rat plasma; format: in vitro ADME; details: Sprague Dawley, pH 7.4, read-out: Fu (%), unbound fraction
# CYP3A4/5 = details: ref 20 (Li Mei's group); cited from earlier work
# [24] = 120 min, read-out: Remaining % (T = 120 min)
# T1 sequence (P11712 whole entry): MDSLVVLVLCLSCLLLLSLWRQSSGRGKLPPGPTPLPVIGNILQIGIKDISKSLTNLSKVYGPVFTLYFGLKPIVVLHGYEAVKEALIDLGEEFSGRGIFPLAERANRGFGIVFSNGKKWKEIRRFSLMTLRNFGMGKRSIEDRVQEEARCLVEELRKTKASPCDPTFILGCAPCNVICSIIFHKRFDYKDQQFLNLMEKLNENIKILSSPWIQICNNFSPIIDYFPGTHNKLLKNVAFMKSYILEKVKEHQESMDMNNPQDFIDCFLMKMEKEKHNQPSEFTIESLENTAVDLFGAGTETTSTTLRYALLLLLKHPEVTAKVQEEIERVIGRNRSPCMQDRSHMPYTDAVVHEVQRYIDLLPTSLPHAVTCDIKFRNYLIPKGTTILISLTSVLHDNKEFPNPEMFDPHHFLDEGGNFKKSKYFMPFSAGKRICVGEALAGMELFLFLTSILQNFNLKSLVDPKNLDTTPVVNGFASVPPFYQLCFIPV
molecule,measurement,setting,value
CCOc1ccc2ccc(=O)oc2c1 [7-Ethoxycoumarin],half-life at 1 μM,"[1]; cryopreserved hepatocytes in suspension, monkey hepatocytes, 0.5 × 10^6 cells/mL, 1 μM, n = 2",13.6 min
same,CLint scaled at 1 μM,"[1]; cynomolgus monkey, cryopreserved hepatocytes in suspension, scaled from monkey hepatocyte CLint, read-out: CLint (liver)",367 mL/min/kg
same,CLint (hep) (μL/min/10^6),[1]; monkey hepatocytes,102.0 μL/min/10^6
same,Remaining % (T = 90 min),"[1]; monkey hepatocytes, 90 min",0.0%
same,half-life at 1 μM,"[2]; CD-1, cryopreserved hepatocytes (suspension), mouse hepatocytes, 0.5 × 10^6 cells/mL, 1 μM, n = 2",< 7.5 min
same,CLint scaled at 1 μM,"[2]; CD-1, cryopreserved hepatocytes in suspension, scaled from mouse hepatocyte CLint, read-out: CLint (liver)",> 2200 mL/min/kg
same,CLint (hep) (μL/min/10^6),[2]; mouse hepatocytes,>184.8 μL/min/10^6
same,Remaining % (T = 90 min),"[2]; mouse hepatocytes, 90 min",0.0%
same,half-life at 1 μM,"[3]; Sprague Dawley, cryopreserved hepatocytes (suspension), rat hepatocytes, 0.5 × 10^6 cells/mL, 1 μM, n = 2",18.2 min
same,"remaining at 1.5 h, 1 μM","[3]; Sprague Dawley, cryopreserved hepatocytes in suspension, rat hepatocytes, 90 min, read-out: Remaining % (T = 90 min)",2.1%
same,CLint scaled at 1 μM,"[3]; Sprague Dawley, cryopreserved hepatocytes in suspension, scaled from rat hepatocyte CLint, read-out: CLint (liver)",356 mL/min/kg
same,CLint (hep) (μL/min/10^6),[3]; rat hepatocytes,76.0 μL/min/10^6
same,half-life at 1 μM,"[4]; beagle, cryopreserved hepatocytes in suspension, dog hepatocytes, 0.5 × 10^6 cells/mL, 1 μM, n = 2",5.4 min
same,CLint scaled at 1 μM,"[4]; beagle, cryopreserved hepatocytes in suspension, scaled from dog hepatocyte CLint, read-out: CLint (liver)",1760 mL/min/kg
same,CLint (hep) (μL/min/10^6),[4]; dog hepatocytes,256.4 μL/min/10^6
same,Remaining % (T = 90 min),"[4]; dog hepatocytes, 90 min",0.0%
same,half-life at 1 μM,"[5]; cryopreserved hepatocytes (suspension), human hepatocytes, 0.5 × 10^6 cells/mL, 1 μM, n = 2",41.6 min
same,"remaining at 1.5 h, 1 μM","[5]; cryopreserved hepatocytes in suspension, human hepatocytes, 90 min, read-out: Remaining % (T = 90 min)",21.9%
same,CLint scaled at 1 μM,"[5]; cryopreserved hepatocytes in suspension, scaled from human hepatocyte CLint, read-out: CLint (liver)",92.6 mL/min/kg
same,CLint (hep) (μL/min/10^6),[5]; human hepatocytes,33.3 μL/min/10^6
CC(=O)Oc1ccc(C(c2ccc(OC(C)=O)cc2)c2ccccn2)cc1 [Bisacodyl],half-life at 2 μM,"[6]; 37 °C, n = 2",7.2 min
same,"remaining at 2 h, 2 μM",[6]; [24],0%
CCOC(=O)[C@H](CCc1ccccc1)N[C@@H](C)C(=O)N1CCC[C@H]1C(=O)O.O=C(O)/C=C\C(=O)O [Enalapril maleate salt],T1/2,"[7]; 37 °C, n = 2",12.8 min
same,Remaining % (T = 120 min),[7]; 120 min,0.2%
CC(C)[C@H]1OC(=O)[C@H](Cc2ccccc2)N(C)C(=O)[C@@H](C(C)C)OC(=O)[C@H](Cc2ccccc2)N(C)C(=O)[C@@H](C(C)C)OC(=O)[C@H](Cc2ccccc2)NC1=O [M15],Detected in liver microsomes: Rat,[8],+
same,Detected in liver microsomes: Human,[9],+
same,Detected in liver microsomes: Mouse,[10],+
same,Detected in liver microsomes: Dog,[11],+
same,Detected in liver microsomes: Monkey,[12],+
CCN(CC)CCOC(=O)c1ccc(N)cc1 [Procaine Hydrochloride],half-life at 2 μM,"[13]; 37 °C, n = 2",4.4 min
same,"remaining at 2 h, 2 μM",[13]; [24],0%
CC(C)[N+](C)(CCOC(=O)C1c2ccccc2Oc2ccccc21)C(C)C [Propantheline bromide],half-life at 2 μM,"[14]; CD-1, 37 °C, n = 2",36.6 min
same,"remaining at 2 h, 2 μM","[14]; CD-1, 120 min, read-out: Remaining % (T = 120 min)",9.7%
same,half-life at 2 μM,"[15]; 37 °C, n = 2",10.3 min
same,"remaining at 2 h, 2 μM",[15]; [24],0%
Nc1ccc(S(=O)(=O)Nc2ccnn2-c2ccccc2)cc1 [Sulfaphenazole],Activity (% VC),CYP2C9,20.0 % VC
C[C@]12CC[C@H]3[C@@H](CCC4=CC(=O)CC[C@@]43C)[C@@H]1CC[C@@H]2O [Testosterone],half-life at 1 μM,"[16]; CD-1, mouse, liver microsomes, MLM, 1 μM, NADPH, n = 2",3.9 min
same,microsomal CLint at 1 μM,"[16]; CD-1, mouse, liver microsomes, MLM, read-out: CLint(mic)",359 µL/min/mg
same,CLint scaled at 1 μM,"[16]; CD-1, mouse, liver microsomes, scaled from MLM CLint(mic)",1420 mL/min/kg
same,Remaining % (T = 60 min),"[16]; MLM, 60 min",0.0%
same,Remaining % (T = 60 min),"[17]; CLM, 60 min",0.0%
same,half-life at 1 μM,"[17]; cynomolgus monkey, liver microsomes, CLM, 1 μM, NADPH, n = 2",5 min
same,microsomal CLint at 1 μM,"[17]; cynomolgus monkey, liver microsomes, CLM, read-out: CLint(mic)",277 µL/min/mg
same,CLint scaled at 1 μM,"[17]; cynomolgus monkey, liver microsomes, scaled from CLM CLint(mic)",374 mL/min/kg
same,T1/2,"[18]; DLM, 1 μM, NADPH, n = 2",20.0 min
same,microsomal CLint at 1 μM,"[18]; beagle, dog, microsomes, DLM, read-out: CLint(mic)",69.2 µL/min/mg
same,CLint scaled at 1 μM,"[18]; beagle, dog, microsomes, scaled from DLM CLint(mic)",99.6 mL/min/kg
same,Remaining % (T = 60 min),"[19]; RLM, 60 min",0.0%
same,microsomal CLint at 1 μM,"[19]; Sprague Dawley, rat, microsomes, RLM, read-out: CLint(mic)",1370 µL/min/mg
same,CLint scaled at 1 μM,"[19]; Sprague Dawley, rat, microsomes, scaled from RLM CLint(mic)",2470 mL/min/kg
CC(=O)CC(c1ccccc1)c1c(O)c2ccccc2oc1=O (stereo not shown) [warfarin],fraction unbound at 5 h,[20],0.0271
same,fraction unbound at 5 h,[21],0.0084
same,fraction unbound at 5 h,[22],0.0246
same,fraction unbound at 5 h,[23],0.0052
Beauvericin,"Inhibition mechanism, CYP3A4",CYP3A4/5,mix-type
